Values of other authors, collected in paper PMC11035696, “Prospective de novo drug design with deep interactome learning” (Nature Communications, 2024).

Test system: PPARγ
Details: known PPARγ activity of ChEMBL ligands; ref ChEMBL database; cited from earlier work

Structure (SMILES) | pEC50
Cc1sc(-c2ccccc2F)nc1CCOc1ccc2c(c1)CC[C@H]2CC(=O)O [ChEMBL391987] | 6.94
Cc1cc(OCC[C@@H](C)Oc2ccc(Cl)cc2-c2ccccn2)ccc1CCC(=O)O [ChEMBL241299] | 6.51
CCCc1cc(C(F)(F)F)ccc1OCCCOc1ccc(OCC(=O)O)c(C)c1 [ChEMBL213355] | 6.82
